# Source: US8198405B2, “Stabilized alpha helical peptides and uses thereof” (Dana-Farber Cancer Institute, Inc., priority 2003, dated 2012)
# Where a SMILES comes first, the peptide text is derived from it. Bridges are numbered along the chain shown (N, C = ends). [ ]: non-standard residue; d: D form. S5 = C=CCCC[C@](C)(N)C(=O)O; Nle = CCCC[C@H](N)C(=O)O
# Tests used:
# [1] = test system: REH, MV4; 11, and SEMK2 cell lines; assay: Apoptosis induction assays; type: cell-based
# BAX = biological target: T1, BAX (Homo sapiens, UniProt Q07812); assay: Fluorescence polarization direct binding assay; conditions: full-length BAX
# T1 construct: Full-length BAX protein was prepared as previously described (Suzuki et al, Cell, 103:645); made in house
# BCL-2 = biological target: T2, BCL-2 (Homo sapiens, UniProt P10415); assay: Fluorescence polarization direct binding assay; conditions: fluorescinated compounds 25 nM, GST-BCL2 25 nM-1000 nM (FIG. 11d)
# T2 construct: containing the plasmid encoding C-terminal deleted GST-BCL-2; made in house; host or cells: Escherichia coli BL21 (DE3)
# Jurkat leukemia cells = assay: Apoptosis by annexin V flow cytometry; type: cell-based; conditions: 10 μM, 20 hours
# Protocol: Indeed, the pro-apoptotic effect of 10 uM SAHB3BIDA and B on “wild-type” Jurkats was abolished in the BCL-2 overexpressing cells. […] The observed pro-apoptotic effects are selectively abolished by gly to glu mutation of SAHB3BIDA and cellular overexpression of BCL-2, findings which underscore that SAHB3BID compounds function via the defined mitochondrial apoptosis pathway.
# [2] = test system: purified mouse liver mitochondria; assay: Cytochrome c release assay (ELISA), wild-type mitochondria; type: biochemical; conditions: wild-type versus Bak-/- mitochondria
# Protocol: In order to assess the biological activity of SAHB3BID compounds in vitro, cytochrome c release assays were performed using purified mouse liver mitochondria. Mitochondria (0.5 mg/mL) were incubated for 40 minutes with 1 μM and 100 nM of SAHB3BID compounds and then supernatants and mitochondrial fractions isolated and subjected to cytochrome c ELISA assay. Background cytochrome c release (10-15%) was subtracted from total release for each sample, and the percent actual cytochrome c release was determined (FIG. 12). […] In each case, except for the double cross-linked SAHB3BIDE (which may lack critical amino acids for biological activity or, in this case, be overly constrained by the dual cross-links), there is approximately a doubling of cytochrome c release in response to 1 μM SAHB3BID compounds compared to the unmodified peptide (FIG. 12a). […] BID mutants with defective BH3 domains can promote BAK-independent cytochrome c mobilization (Scorrano et al, Dev Cell, 2:55), and the highly hydrophobic BID helix 6 has been implicated in this activity (L. Scorrano, S. J. Korsmeyer, unpublished results).
# Similar to the above experiment, mouse liver mitochondria from wild-type and Bak−/− mice were exposed to the compounds at various concentrations and assayed for cytochrome c release at 10 and 40 minute intervals. […] Thus, SAHB3BIDA and B display a 10-25 fold enhancement in cytochrome c release activity at the 40 minute time point.
# T2 sequence (P10415 1-218 limits assumed): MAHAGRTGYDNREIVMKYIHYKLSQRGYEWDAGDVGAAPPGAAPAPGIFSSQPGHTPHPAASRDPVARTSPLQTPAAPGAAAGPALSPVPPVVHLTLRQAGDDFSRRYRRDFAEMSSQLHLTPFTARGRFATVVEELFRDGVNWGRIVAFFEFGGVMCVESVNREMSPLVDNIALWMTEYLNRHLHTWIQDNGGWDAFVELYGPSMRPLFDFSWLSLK
# T1 sequence (Q07812 whole entry): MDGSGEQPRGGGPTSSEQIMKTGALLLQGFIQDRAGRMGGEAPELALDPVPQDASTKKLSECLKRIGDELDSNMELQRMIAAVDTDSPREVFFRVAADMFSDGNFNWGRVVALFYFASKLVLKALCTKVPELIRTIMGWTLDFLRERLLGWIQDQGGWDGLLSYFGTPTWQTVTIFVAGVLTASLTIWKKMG
structure (smiles),measurement,setting,value
CCCC[C@H](NC(=O)[C@]1(C)CCCC=CCCC[C@](C)(NC(=O)[C@H](C)NC(=O)[C@H](CC(C)C)NC(=O)[C@H](Cc2c[nH]cn2)NC(=O)[C@H](CCCNC(=N)N)NC(=O)[C@H](C)NC(=O)[C@@H](NC(=O)[C@H](CC(N)=O)NC(=O)[C@H](CCCNC(=N)N)NC(=O)[C@@H](NC(=O)[C@@H](NC(=O)[C@H](CC(=O)O)NC(=O)[C@H](CCC(=O)O)NC(C)=O)[C@@H](C)CC)[C@@H](C)CC)[C@@H](C)CC)C(=O)N[C@@H](C(C)C)C(=O)N[C@@H](CCC(=O)O)C(=O)N[C@@H](CC(=O)O)C(=O)N1)C(=O)N[C@@H](CC(=O)O)C(=O)N[C@@H](CCCNC(=N)N)C(=O)N[C@@H](CO)C(=O)N[C@H](C(=O)N[C@@H](Cc1c[nH]c2ccccc12)C(N)=O)[C@@H](C)CC [SAHB3BID(G→E)A] (Ac-EDIIRNIARHLA[S5]VED[S5][Nle]DRSIW-NH2; staple 13-17; N-terminus assumed),"apoptosis induction, in words",[1],no effect
same,"BAX binding, in words",BAX,measurable binding
same,Kd,BCL-2,483 nM
same,"apoptosis induction, in words",Jurkat leukemia cells,no effect
same,"Bak dependence of cytochrome c release, in words",[2],only Bak-independent cytochrome c release
